The values below come from paper PMC6479402, “Anti-Herpetic, Anti-Dengue and Antineoplastic Activities of Simple and Heterocycle-Fused Derivatives of Terpenyl-1,4-Naphthoquinone and 1,4-Anthraquinone” (Molecules, 2019).

In general, pEC50 refers to −log10 of the EC50, conventionally taken in molar units. Read a high pEC50 as a low EC50. What is called EC50 is the concentration at which the effect is half-maximal.

Holding throughout (assay type): cell-based, Human Herpesvirus 1
In experiment [1] the test system is HHV-1. Kind of experiment: HHV-1 viral attachment assay on Vero cells (plaque reduction). As to conditions: Human alphaherpesvirus 1, Vero. On the procedure:
(§1) The effect of NQ 4 in the initial phases of the HHV-1 viral replication was done as previously described by Cardozo et al., 2011 [53]. In the attachment assay, pre-chilled (1 h at 4 °C) Vero cell monolayers were exposed to viruses (100 PFU/well) in presence or absence of the compound and were incubated for 2 h at 4 °C. After incubation, the substance and unbounded viruses were removed with cold PBS; cells were overlaid with CMC 1% and incubated for 72 h at 37 °C (5% CO2). In the entry assay, pre-chilled cells were infected with viruses (100 PFU/well) and incubated for 2 h at 4 °C. After this time, the unbound viruses were removed with cold PBS; cells were treated with different concentrations of pre-warmed compound, and then incubated for 1 h at 37 °C. Unabsorbed viruses were inactivated using citrate buffer (pH = 3.0) and then cells were washed with PBS, overlaid with CMC 1%, and incubated for 72 h at 37 °C (5% CO2). In both assays, further procedures were the same mentioned previously for the plaque reduction assay and dextran sulfate (DS) was included as positive control.
(§2) In these tests, the evaluated NQ 4 concentration range was from 0.1 to 0.8 µg/mL and the effective concentration fifty (EC50), the concentration that reduces the 50% of plaque forming units, was determined from dose-effect curves by linear regression methods for each compound. […]

In experiment [2] the test system is HHV-1. Description: Plaque reduction assay, simultaneous and post-infection treatment, Vero cells. On the procedure:
To define the stage of the viral replicative cycle where NQ 4 exerts its action, simultaneous and post-infection treatments against HHV-1 and HHV-2 were performed. […] First, we determined the inhibitory concentration 50% (IC50) for the compound and drug positive controls on infected cells and their effects on non-tumoral Vero cells, to define the concentration of evaluation and to calculate the antiviral selectivity index (SI). Then, the concentration of NQ 4 that reduced the number of viral plaques by 50% (EC50) was determined from the dose-response curves.
The potential antiviral mechanism of NQ 4 was evaluated by the plaque reduction assay as previously described by us. Vero cell monolayers grown in 24-well plates were infected with 100 PFU/well of each virus. For simultaneous treatment, the compound and the virus were added simultaneously to the cell monolayers and incubated for 1 h at 37 °C (5% CO2). Then, cells were washed with phosphate buffered saline (PBS, pH = 7.0) and CMC at 1% and 0.75% was added for HHV-1 and HHV-2, respectively. In post-infection treatment, virus was added to cell monolayer and incubated for 1 h at 37 °C (5% CO2). After incubation, washing was performed with PBS and molecule previously prepared in CMC 1% and 0.75% for HHV-1 and HHV-2 respectively, was added. In both treatments, NQ 4 was prepared at concentrations from 0.4 µg/mL to 3.1 µg/mL and the cell monolayers allowed to incubate for 72 h. Subsequently, cells were fixed and stained with a solution of 3.5% formaldehyde with 0.2% crystal violet, and the viral plaques were counted. Dextran sulfate (DS) was included as positive control in simultaneous assay and acyclovir (A) was the positive control in after infection treatment.
A general note: In a plaque reduction assay, fewer plaques than in the control indicate reduced infectivity or spread.

Experiment [3] concerns HHV-1. Kind of experiment: HHV-1 viral entry assay on Vero cells (plaque reduction). As to conditions: 0.1–0.8 µg/mL. On the procedure:
as §1, §2

pEC50: −log10 of the molar value. Values joined by “and” are separate entries in the source; they are usually repeats but may differ in a detail not shown here. Equal values may be shown once.

Compound `CC(C)CCCc1ccc2c(c1)C(=O)C(Cl)=C(Cl)C2=O` [NQ 4] gave a pEC50 with HHV-1 [1] of 6.42. The 50% effective concentration (EC50) is 0.12 µg/mL with HHV-1 [1] (2 h at 4 °C, 0.1–0.8 µg/mL); < 0.4 µg/mL and < 1.28 µM in the experiment on HHV-1 [2] (Human alphaherpesvirus 1, simultaneous treatment, read-out: EC50, anti-herpetic activity on pre-infective stages, HHV-1). In addition, the “Antiviral activity in post-infection treatment, HHV-1” value with HHV-1 [2] (post-infective stages, acyclovir 1.5 µg/mL) is “no activity”. In the experiment with HHV-1 [2] (simultaneous treatment, PFU, NQ 4 0.4–3.1 µg/mL, DS 5 µg/mL), the “Antiviral activity in simultaneous treatment, HHV-1” value is given as “anti-herpetic activity in all concentrations tested”. Further, the “Effect on HHV-1 viral entry” value in the experiment with HHV-1 [3] is on record as “not significant”.
